Test [1] concerns the target T1, human MERTK cytoplasmic domain (Homo sapiens, UniProt Q12866).
T1 construct: human MERTK cytoplasmic domain (Carna Biosciences 08-108); purchased Carna Biosciences 08-108
Put plainly: biochemical. How it is done: Assay 1a—MERTK HTRF KinEASE-TK Assay
The enzymatic reaction was carried out for 30 min at room temperature. 10 μL TK Antibody-Cryptate/Streptavidin-XL665 (Cisbio 610SAXLG) was then added for 60 min, including EDTA containing detection buffer (Cisbio 62SDBRDF) to stop the reaction.

Test [2] concerns the target T2, recombinant human MERTK expressed in live cells (HEK 293, MERTK-Nanoluc fusion vector) (Homo sapiens, UniProt Q12866).
T2 construct: host or cells: HEK 293
T2 sequence (Q12866 21-999): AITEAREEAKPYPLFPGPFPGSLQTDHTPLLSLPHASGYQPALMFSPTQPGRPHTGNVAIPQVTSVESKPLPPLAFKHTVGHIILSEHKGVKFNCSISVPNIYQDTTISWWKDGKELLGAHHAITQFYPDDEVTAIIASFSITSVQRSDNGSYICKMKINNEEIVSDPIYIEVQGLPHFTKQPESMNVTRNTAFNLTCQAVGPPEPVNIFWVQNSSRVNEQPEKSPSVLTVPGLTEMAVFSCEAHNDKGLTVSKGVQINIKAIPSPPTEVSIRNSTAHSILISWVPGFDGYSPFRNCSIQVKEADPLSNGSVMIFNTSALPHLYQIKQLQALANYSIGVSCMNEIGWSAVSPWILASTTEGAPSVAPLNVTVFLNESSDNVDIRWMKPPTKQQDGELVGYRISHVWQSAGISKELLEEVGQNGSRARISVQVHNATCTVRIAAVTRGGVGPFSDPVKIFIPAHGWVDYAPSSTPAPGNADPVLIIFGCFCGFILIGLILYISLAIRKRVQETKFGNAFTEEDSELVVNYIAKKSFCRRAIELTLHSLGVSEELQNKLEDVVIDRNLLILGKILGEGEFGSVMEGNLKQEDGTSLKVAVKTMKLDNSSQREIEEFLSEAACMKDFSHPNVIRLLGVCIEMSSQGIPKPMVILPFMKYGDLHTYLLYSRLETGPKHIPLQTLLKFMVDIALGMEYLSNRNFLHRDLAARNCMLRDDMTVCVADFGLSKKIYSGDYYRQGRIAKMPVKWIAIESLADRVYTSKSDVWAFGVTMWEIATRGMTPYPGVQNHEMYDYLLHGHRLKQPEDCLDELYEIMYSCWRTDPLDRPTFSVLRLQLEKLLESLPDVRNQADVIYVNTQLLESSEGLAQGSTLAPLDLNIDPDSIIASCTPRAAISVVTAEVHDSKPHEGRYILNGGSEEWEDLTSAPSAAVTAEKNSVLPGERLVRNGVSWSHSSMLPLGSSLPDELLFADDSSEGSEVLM
Put plainly: Assay 2 MERTK cellular target engagement (NanoBRET TE) assay. The class given is cell-based.

In test [3] the target is T3, Ba/F3 Pro B-cell line expressing TEL-human Tyro3 fusion domain (Homo sapiens, UniProt Q06418).
T3 sequence (Q06418 518-790 limits assumed): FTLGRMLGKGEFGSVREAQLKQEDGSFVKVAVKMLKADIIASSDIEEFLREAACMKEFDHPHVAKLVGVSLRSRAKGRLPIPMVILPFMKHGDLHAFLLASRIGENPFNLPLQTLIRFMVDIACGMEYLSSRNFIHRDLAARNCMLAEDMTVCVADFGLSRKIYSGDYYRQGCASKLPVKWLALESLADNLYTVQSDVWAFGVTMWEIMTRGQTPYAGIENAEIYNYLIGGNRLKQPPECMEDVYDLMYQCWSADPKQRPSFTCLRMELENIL
The class given is cell-based. To be noted: cell survival, 48 h, CellTiter-Glo.

Where [4] appears, read: 30 uM ATP, read-out: Assay 1a Mer IC50 30 uM ATP.
Setting [5] is: HEK 293 cells, tracer K9, 2 h at 37° C., read-out: Assay 2 Cell TE MER IC50.

Like-named read-outs stand apart in the source and are kept apart here.

As for `CN1CCC(NC(=O)c2cc3c(Nc4ccc(NC(=O)c5cccn(-c6ccccc6)c5=O)cc4)ccnc3cn2)CC1` [Example 3, N-(1-methyl-4-piperidyl)-4-[4-[(2-oxo-1-phenyl-pyridine-3-carbonyl)amino]anilino]-1,7-naphthyridine-6-carboxamide], the figures for the IC50 in test [1] (setting [4]), in test [2] (setting [5]) and in test [3] were 55 nM, 26.3 nM and 956 nM, respectively.

Regarding `O=C(Nc1ccc(Oc2ccnc3cnc(N4CCNCC4)cc23)cc1)c1cccn(-c2ccc(F)cc2)c1=O` [Example 12.2, 1-(4-fluorophenyl)-2-oxo-N-[4-[(6-piperazin-1-yl-1,7-naphthyridin-4-yl)oxy]phenyl]pyridine-3-carboxamide], the IC50 came out at 20 nM in test [1] (setting [4]), 18.3 nM in test [2] (setting [5]) and 238 nM in test [3].

Turning to `CC(C)n1cc(C(=O)Nc2ccc(Oc3ccnc4cnc(N5CCNCC5)cc34)cc2)c(=O)n(-c2ccccn2)c1=O` [Example 12.3, 1-isopropyl-2,4-dioxo-N-[4-[(6-piperazin-1-yl-1,7-naphthyridin-4-yl)oxy]phenyl]-3-(2-pyridyl)pyrimidine-5-carboxamide], the IC50 in test [1] (setting [4]) was found to be 56 nM; in test [2] (setting [5]) it was 244 nM; in test [3], 1320 nM.

Regarding `CC(C)n1cc(C(=O)Nc2ccc(Oc3ccnc4cnc(N5CCNCC5)cc34)cc2)c(=O)n(-c2ccc(F)cn2)c1=O` [Example 12.4, 3-(5-fluoro-2-pyridyl)-1-isopropyl-2,4-dioxo-N-[4-[(6-piperazin-1-yl-1,7-naphthyridin-4-yl)oxy]phenyl]pyrimidine-5-carboxamide], the IC50 worked out at 8 nM in test [1] (setting [4]), 45.4 nM in test [2] (setting [5]) and 313 nM in test [3].

As for `CC(C)n1cc(C(=O)Nc2ccc(Oc3ccnc4cnc(N5CCNCC5)cc34)cc2)c(=O)c(-c2ccc(F)cc2)c1` [Example 13, 5-(4-Fluorophenyl)-1-isopropyl-4-oxo-N-[4-[(6-piperazin-1-yl-1,7-naphthyridin-4-yl)oxy]phenyl]pyridine-3-carboxamide], the IC50 in test [1] (setting [4]) was found to be 1 nM; in test [2] (setting [5]), 6.7 nM; in test [3], 212 nM.

As for `Cn1cc(C(=O)Nc2ccc(Oc3ccnc4cnc(N5CCNCC5)cc34)cc2)c(=O)c(-c2ccc(F)cc2)c1` [Example 13.1, 5-(4-fluorophenyl)-1-methyl-4-oxo-N-[4-[(6-piperazin-1-yl-1,7-naphthyridin-4-yl)oxy]phenyl]pyridine-3-carboxamide], the figures for the IC50 in test [1] (setting [4]), in test [2] (setting [5]) and in test [3] were 4 nM, 12.4 nM and 179 nM, respectively.

`C[C@H](CO)n1cc(C(=O)Nc2ccc(Oc3ccnc4cnc(C(=O)NC5CCN(C)CC5)cc34)cc2)c(=O)n(-c2ccc(F)cc2)c1=O` [Example 14, 4-[4-[[3-(4-Fluorophenyl)-2,4-dioxo-1-[(1R)-2-hydroxy-1-methyl-ethyl]pyrimidine-5-carbonyl]amino]phenoxy]-N-(1-methyl-4-piperidyl)-1,7-naphthyridine-6-carboxamide]: the IC50 turned out to be 14 nM in test [1] (setting [4]), 75.9 nM in test [2] (setting [5]) and 592 nM in test [3].

For the molecule `CN1CCC(NC(=O)c2cc3c(Oc4ccc(NC(=O)c5cn(C6CC6)c(=O)n(-c6ccc(F)cc6)c5=O)cc4)ccnc3cn2)CC1` [Example 15, 4-[4-[[1-Cyclopropyl-3-(4-fluorophenyl)-2,4-dioxo-pyrimidine-5-carbonyl]amino]phenoxy]-N-(1-methyl-4-piperidyl)-1,7-naphthyridine-6-carboxamide], the IC50 in test [1] (setting [4]) was determined as 22 nM; in test [2] (setting [5]), 133 nM; in test [3] it was 673 nM.

Consider `O=C(Nc1ccc(Oc2ccnc3cnc(N4CCN(C5COC5)CC4)cc23)cn1)c1ccnn(-c2ccc(F)cc2)c1=O` [Example 20, 2-(4-fluorophenyl)-N-[5-[[6-[4-(oxetan-3-yl)piperazin-1-yl]-1,7-naphthyridin-4-yl]oxy]-2-pyridyl]-3-oxo-pyridazine-4-carboxamide], for which the IC50 in test [1] (setting [4]) was 3 nM; in test [3], 272 nM.

Turning to `CC(C)n1cc(C(=O)Nc2ccc(Oc3ccnc4cnc(C(=O)NC5CCN(C)CC5)cc34)cn2)c(=O)n(-c2ccc(F)cc2)c1=O` [Example 27.5, 4-[[6-[[3-(4-fluorophenyl)-1-isopropyl-2,4-dioxo-pyrimidine-5-carbonyl]amino]-3-pyridyl]oxy]-N-(1-methyl-4-piperidyl)-1,7-naphthyridine-6-carboxamide], the results for the half-maximal inhibitory concentration (IC50) in test [1] (setting [4]), in test [2] (setting [5]) and in test [3] were 15 nM, 30.5 nM and 107 nM, respectively.

Regarding `Cc1cc(NC(=O)c2cccn(-c3ccccc3)c2=O)ccc1Oc1ccnc2cnc(N3CCNCC3)cc12` [Example 30, N-[3-methyl-4-[(6-piperazin-1-yl-1,7-naphthyridin-4-yl)oxy]phenyl]-2-oxo-1-phenyl-pyridine-3-carboxamide], the IC50 in test [1] stood at 13 nM; in test [2], 244 nM; in test [3], 1330 nM.

As to `CN1CCC(NC(=O)c2cc3c(Oc4ccc(NC(=O)c5cccn(-c6ccccc6)c5=O)cc4F)ccnc3cn2)CC1` [Example 33, 4-[2-fluoro-4-[(2-oxo-1-phenyl-pyridine-3-carbonyl)amino]phenoxy]-N-(1-methyl-4-piperidyl)-1,7-naphthyridine-6-carboxamide], the IC50 in test [1] (setting [4]) is 8 nM; in test [2] (setting [5]), 74.3 nM; in test [3], 155 nM.

With `O=C(Nc1ccc(Oc2ccnc3cnc(N4CCNCC4)cc23)cc1)c1cn(C2CC2)c(=O)n(-c2ccc(F)cc2)c1=O` [Example 36, 1-cyclopropyl-3-(4-fluorophenyl)-2,4-dioxo-N-[4-[(6-piperazin-1-yl-1,7-naphthyridin-4-yl)oxy]phenyl]pyrimidine-5-carboxamide], the values for the IC50 in test [1] (setting [4]), in test [2] (setting [5]) and in test [3] were 20 nM, 68.1 nM and 873 nM, respectively.

As to `CN1CCC(NC(=O)c2cc3c(Oc4ccc(NC(=O)c5cn(C)cc(-c6ccc(F)cc6)c5=O)cc4)ccnc3cn2)CC1` [Example 37, 4-[4-[[5-(4-fluorophenyl)-1-methyl-4-oxo-pyridine-3-carbonyl]amino]phenoxy]-N-(1-methyl-4-piperidyl)-1,7-naphthyridine-6-carboxamide], the IC50 is 3 nM in test [1] (setting [4]), 41.4 nM in test [2] (setting [5]) and 251 nM in test [3].

Consider `CC(C)n1cc(C(=O)Nc2ccc(Oc3ccnc4cnc(C(=O)NC5CCN(C)CC5)cc34)cc2)c(=O)c(-c2ccc(F)cc2)c1` [Example 37.1, 4-[4-[[5-(4-fluorophenyl)-1-isopropyl-4-oxo-pyridine-3-carbonyl]amino]phenoxy]-N-(1-methyl-4-piperidyl)-1,7-naphthyridine-6-carboxamide], for which the IC50 in test [1] (setting [4]) worked out at 2 nM; in test [2] (setting [5]), 8.3 nM; in test [3] it was 43 nM.

The values above are taken from patent US20230203029A1 (priority 2020, published 2023).
